Structures are written as SMILES.

The target of the assay is T1, UCHL1 (Homo sapiens, UniProt P09936).
T1 construct: made in house; host or cells: HEK293T
T1 sequence (P09936 1-223): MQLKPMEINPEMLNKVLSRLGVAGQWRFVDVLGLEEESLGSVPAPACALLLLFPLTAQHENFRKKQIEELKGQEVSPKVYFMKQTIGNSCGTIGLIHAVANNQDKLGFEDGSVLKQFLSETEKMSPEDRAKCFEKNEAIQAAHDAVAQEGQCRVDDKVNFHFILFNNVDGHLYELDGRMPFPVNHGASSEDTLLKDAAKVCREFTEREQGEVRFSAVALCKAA
The assay can be described thus: UCHL1 biochemical IC50 assay (fluorescence polarisation). Conditions: 30 min enzyme/compound pre-incubation at room temp, read after 2 hr incubation, read-out: Activity range (UCHL1 biochemical IC50 assay). In short, it runs like this:
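FLAG-UCHL1 purified from transfected HEK293T cells was preincubated 30 min at room temperature with compound (8 points, 100–0.03 μM final) in Tris pH 7.5 buffer with Tween 20, BSA and beta-mercaptoethanol. Reaction started with 50 nM TAMRA-peptide–ubiquitin isopeptide substrate; fluorescence polarisation (ex 540/em 590 nm) read at once and after 2 h.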
(Fluorescence polarisation rises when a labelled molecule tumbles more slowly, as on binding a larger partner.)
One may read the IC50 as the concentration needed to halve the response being measured. For the compound `N#CN1CC[C@H](C(=O)Nc2cn(-c3cccnc3)cn2)C1` [Example 181, (S)-1-cyano-N-(1-(pyridin-3-yl)-1H-imidazol-4-yl)pyrrolidine-3-carboxamide], the IC50 is less than 1000 nM.
For `N#CN1CC[C@H](C(=O)Nc2cn(Cc3ccccc3)cn2)C1` [Example 146, (S)—N-(1-benzyl-1H-imidazol-4-yl)-1-cyanopyrrolidine-3-carboxamide] the value was less than 1000 nM.
As for `Cc1noc(C)c1-c1ccc2nc(NC(=O)[C@H]3CCN(C#N)C3)sc2c1C` [Example 138, (S)-1-cyano-N-(6-(3,5-dimethylisoxazol-4-yl)-7-methylbenzo[d]thiazol-2-yl)pyrrolidine-3-carboxamide], the IC50 was less than 1000 nM.
Take `CNC(=O)c1ccccc1-n1cnc(NC(=O)[C@H]2CCN(C#N)C2)c1` [Example 157, (S)-1-cyano-N-(1-(2-(methylcarbamoyl)phenyl)-1H-imidazol-4-yl)pyrrolidine-3-carboxamide]: the IC50 was 1000 to 10000 nM.
Take `COCCn1cc(-c2ccc(-n3cnc(NC(=O)[C@H]4CCN(C#N)C4)c3)cc2)cn1` [Example 278, (S)-1-cyano-N-(1-(4-(1-(2-methoxyethyl)-1H-pyrazol-4-yl)phenyl)-1H-imidazol-4-yl)pyrrolidine-3-carboxamide]: the IC50 was less than 1000 nM.
For `N#CN1CC[C@H](C(=O)Nc2cn3cc(Br)ccc3n2)C1` [Example 51, (S)-N-(6-bromoimidazo[1,2-a]pyridin-2-yl)-1-cyano-pyrrolidine-3-carboxamide] the value was less than 1000 nM.
Take `N#CN1CCC(C(=O)Nc2ncc(-c3cccc(Cl)c3)s2)C1` (centres unmarked) [Example 5, N-(5-(3-chlorophenyl)thiazol-2-yl)-1-cyano-pyrrolidine-3-carboxamide]: the IC50 is 1000 to 10000 nM.
Then `N#CN1CCC(C(=O)Nc2ncc(-c3cccc(F)c3)s2)C1` (centres unmarked) [Example 2, 1-cyano-N-(5-(3-fluorophenyl)thiazol-2-yl)pyrrolidine-3-carboxamide], with less than 1000 nM; and `COC(=O)N1CCc2nc(NC(=O)[C@H]3CCN(C#N)C3)sc2C1` [Example 198, methyl (S)-2-(1-cyanopyrrolidine-3-carboxamido)-6,7-dihydrothiazolo[5,4-c]pyridine-5(4H)-carboxylate], with less than 1000 nM.
For `N#CN1CC[C@@H](C(=O)Nc2ncc(N3CCCCC3)s2)C1` [Example 103, (R)-1-cyano-N-(5-(piperidin-1-yl)thiazol-2-yl)pyrrolidine-3-carboxamide] the value was 1000 to 10000 nM; for `CCc1nnc(NC(=O)C2CCN(C#N)C2)s1` (centres unmarked) [Example 12, 1-cyano-N-(5-ethyl-1,3,4-thiadiazol-2-yl)pyrrolidine-3-carboxamide], 1000 to 10000 nM.
For `N#CN1CC[C@H](C(=O)Nc2cn(-c3ccnc4ccccc34)cn2)C1` [Example 305, (S)-1-cyano-N-(1-(quinolin-4-yl)-1H-imidazol-4-yl)pyrrolidine-3-carboxamide] the value was less than 1000 nM.
`Cc1noc(C)c1-c1ccc2nc(NC(=O)[C@@H]3CN(C#N)C[C@H]3C(F)(F)F)cn2c1` (racemic) [Example 210, (±)-trans-1-cyano-N-(6-(3,5-dimethylisoxazol-4-yl)imidazo[1,2-a]pyridin-2-yl)-4-(trifluoromethyl)pyrrolidine-3-carboxamide]: the IC50 is less than 1000 nM.
Then `N#CN1CCC(C(=O)Nc2ccc(C3CCCCC3)cn2)C1` (centres unmarked) [Example 38, 1-cyano-N-(5-cyclohexyl-pyridin-2-yl)pyrrolidine-3-carboxamide], with 1000 to 10000 nM.
As for `N#CN1CC[C@H](C(=O)Nc2ncc(-c3ccc(F)c(C(N)=O)c3)s2)C1` [Example 236, (S)-N-(5-(3-carbamoyl-4-fluorophenyl)thiazol-2-yl)-1-cyanopyrrolidine-3-carboxamide], the IC50 was less than 1000 nM.
For `COC1CCN(c2ccc(NC(=O)[C@H]3CCN(C#N)C3)nc2)CC1` [Example 61, (S)-1-cyano-N-(5-(4-methoxy-piperidin-1-yl)pyridin-2-yl)pyrrolidine-3-carboxamide], the IC50 fell in the range of 1000 to 10000 nM.
`N#CN1CCC(C(=O)Nc2ccccn2)C1` (centres unmarked) [Example 24, 1-cyano-N-(pyridin-2-yl)pyrrolidine-3-carboxamide]: the IC50 was 10000 to 30000 nM.
Turning to `N#CN1CCC(C(=O)Nc2ncc(-c3ccc(Cl)cc3)s2)C1` (centres unmarked) [Example 4, N-(5-(4-chlorophenyl)thiazol-2-yl)-1-cyano-pyrrodine-3-carboxamide], the IC50 was less than 1000 nM.
For `N#CN1C[C@@H](C(=O)Nc2ncc(-c3ccccc3)s2)[C@H](c2cccnc2)C1` (relative stereo) [Example 282, trans-1-cyano-N-(5-phenylthiazol-2-yl)-4-(pyridin-3-yl)pyrrolidine-3-carboxamide] the value was 1000 to 10000 nM; for `N#CN1CC[C@H](C(=O)Nc2nc3ccc(-c4cn[nH]c4)cc3s2)C1` [Example 292, (S)-N-(6-(1H-pyrazol-4-yl)benzo[d]thiazol-2-yl)-1-cyanopyrrolidine-3-carboxamide], 1000 to 10000 nM.
For `Cc1cccc2nc(NC(=O)[C@H]3CCN(C#N)C3)sc12` [Example 47, (S)-1-cyano-N-(7-methylbenzo[d]thiazol-2-yl)-pyrrolidine-3-carboxamide] the value was less than 1000 nM; for `N#CN1CCC(C(=O)Nc2ncc(-c3ccccc3F)s2)C1` (centres unmarked) [Example 3, 1-cyano-N-(5-(2-fluorophenyl)thiazol-2-yl)pyrrolidine-3-carboxamide], 1000 to 10000 nM; for `COCCOc1cc(-n2cnc(NC(=O)[C@H]3CCN(C#N)C3)c2)ccc1C#N` [Example 243, (S)-1-cyano-N-(1-(4-cyano-3-(2-methoxyethoxy)phenyl)-1H-imidazol-4-yl)pyrrolidine-3-carboxamide], less than 1000 nM.
Then `N#CN1CC[C@H](C(=O)Nc2ncc(-c3cccc4c3NC(=O)C4)s2)C1` [Example 228, (S)-1-cyano-N-(5-(2-oxoindolin-7-yl)thiazol-2-yl)pyrrolidine-3-carboxamide], with less than 1000 nM; and `Cn1cccc(C(=O)N2CCc3nc(NC(=O)[C@H]4CCN(C#N)C4)sc3C2)c1=O` [Example 195, (S)-1-cyano-N-(5-(1-methyl-2-oxo-1,2-dihydropyridine-3-carbonyl)-4,5,6,7-tetrahydrothiazolo[5,4-c]pyridin-2-yl)pyrrolidine-3-carboxamide], with less than 1000 nM.
As to `Cn1ccc(C(=O)N2CCc3nc(NC(=O)[C@H]4CCN(C#N)C4)sc3C2)n1` [Example 194, (S)-1-cyano-N-(5-(1-methyl-1H-pyrazole-3-carbonyl)-4,5,6,7-tetrahydrothiazolo[5,4-c]pyridin-2-yl)pyrrolidine-3-carboxamide], the half-inhibitory concentration (IC50) was less than 1000 nM.
`N#CN1CC[C@H](C(=O)Nc2nc3c(s2)CN(Cc2ccccc2)CC3)C1` [Example 201, (S)—N-(5-benzyl-4,5,6,7-tetrahydrothiazolo[5,4-c]pyridin-2-yl)-1-cyanopyrrolidine-3-carboxamide]: the IC50 was 1000 to 10000 nM.
On to `COCCOC(=O)N1CCc2nc(NC(=O)[C@H]3CCN(C#N)C3)sc2C1` [Example 199, 2-methoxyethyl (S)-2-(1-cyanopyrrolidine-3-carboxamido)-6,7-dihydrothiazolo[5,4-c]pyridine-5(4H)-carboxylate], for which the IC50 lay in the range of 1000 to 10000 nM.
For `N#CN1CCC(C(=O)Nc2ccc(Cl)cn2)C1` (centres unmarked) [Example 25, N-(5-chloropyridin-2-yl)-1-cyano-pyrrolidine-3-carboxamide] the value was 10000 to 30000 nM.

For the origin of these results see patent publication US11472798B2 (Mission Therapeutics Limited, priority 2014, dated 2022).
